From BindingDB's records for patent US20240425524 (Merck Sharp & Dohme, 2024)

Biological target: T1, Receptor-interacting serine/threonine-protein kinase 1 (Homo sapiens, UniProt Q13546)
T1 sequence (Q13546 whole entry): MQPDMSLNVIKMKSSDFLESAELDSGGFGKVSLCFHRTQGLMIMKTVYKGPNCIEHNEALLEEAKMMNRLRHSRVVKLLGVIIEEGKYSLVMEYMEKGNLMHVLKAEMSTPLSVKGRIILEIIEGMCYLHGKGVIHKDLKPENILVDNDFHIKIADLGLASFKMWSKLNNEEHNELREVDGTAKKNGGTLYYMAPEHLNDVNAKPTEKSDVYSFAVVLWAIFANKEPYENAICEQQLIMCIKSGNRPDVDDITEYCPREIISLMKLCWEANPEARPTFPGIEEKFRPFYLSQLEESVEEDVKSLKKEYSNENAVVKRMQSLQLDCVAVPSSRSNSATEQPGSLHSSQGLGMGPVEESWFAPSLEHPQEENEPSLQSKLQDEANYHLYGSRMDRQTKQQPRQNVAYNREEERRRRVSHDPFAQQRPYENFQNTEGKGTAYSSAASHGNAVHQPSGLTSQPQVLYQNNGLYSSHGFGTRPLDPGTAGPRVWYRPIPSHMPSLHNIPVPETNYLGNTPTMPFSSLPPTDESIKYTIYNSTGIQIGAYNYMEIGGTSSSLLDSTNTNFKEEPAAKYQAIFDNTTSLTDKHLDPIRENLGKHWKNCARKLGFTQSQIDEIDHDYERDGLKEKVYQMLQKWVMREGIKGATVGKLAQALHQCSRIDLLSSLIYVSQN
Experiment: RIPK1-ADP-Glo Enzymatic Assay
Method: In this assay, the potency (EC50) of each compound was determined from a ten-point (1:3 serial dilution: top compound concentration of 100000 nM) titration curve using the following outlined procedure. To each well of a white ProxiPlus 384 well-plate, 30 nL of compound (1% DMSO in final assay volume of 3 μL) was dispensed, followed by the addition of 2 μL of 1x assay buffer (25 mM Hepes 7.3, 20 mM MgCl2, 50 mM NaCl, 1 mM DTT, 0.005% Tween20, and 0.02% BSA) containing 37.5 nM of GST-RIPK1 (recombinant GST-RIPK1 kinase domain (residues 1-327) enzyme produced from baculovirus-transfected Sf21 cells: MW=62 kDa). Plates were placed in an ambient temperature humidified chamber for a 30 minutes pre-incubation with compound. Subsequently, each reaction was initiated by the addition of 1 μL 1× assay buffer containing 900 μM ATP and […]. The final reaction in each well of 3 μL consists of 25 nM of GST-RIPK1, 300 µM ATP, and 3 μM dephosphorylated-MBP. Kinase reactions were allowed to proceed for 150 minutes prior to adding ADP-Glo reagents per Promega's outlined kit protocol. Dose-response curves were generated by plotting percent effect (% product conversion: Y-axis) vs. Logio compound concentrations (X-axis).

EC50	Structure (SMILES)
10 nM	O=C1N2[C@H](c3cc(F)cc(F)c3)CCN2CC12CCN(c1cc(Cl)c(F)cn1)CC2 [US20240425524, Example 1.10]
17 nM	Cc1csc2ncnc(N3CCC4(CC3)CN3CC[C@@H](c5cc(F)cc(F)c5)N3C4=O)c12 [US20240425524, Example 1.15]
